PubChem BioAssay (NCI)
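All cell lines were grown in 96-well plates and treated with compound for 48 hours. GI50 = concentration required for 50% inhibition of growth. TGI denotes the concentration required for complete inhibition of growth.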

Experiments:
Experiment in all cases: NCI tumour cell line growth inhibition, 48 h
[1] = test system: 786-0 renal
[2] = test system: SK-MEL-2 melanoma
[3] = test system: HOP-62 NSCLC
[4] = test system: HL-60(TB) leukemia
[5] = test system: MDA-MB-231 breast
[6] = test system: TK-10 renal
[7] = test system: HOP-92 NSCLC
[8] = test system: NCI/ADR-RES ovarian
[9] = test system: SF-295 CNS
[10] = test system: SNB-75 CNS

SMILES | GI50 [1] [µM] | TGI [1] [µM] | GI50 [2] [µM] | TGI [2] [µM] | GI50 [3] [µM] | TGI [3] [µM] | GI50 [4] [µM] | TGI [4] [µM] | GI50 [5] [µM] | TGI [5] [µM] | GI50 [6] [µM] | TGI [6] [µM] | GI50 [7] [µM] | TGI [7] [µM] | GI50 [8] [µM] | TGI [8] [µM] | GI50 [9] [µM] | TGI [9] [µM] | GI50 [10] [µM] | TGI [10] [µM]
CS(=O)(=O)CCn1c(=O)c(Oc2ccc(F)cc2F)cc2cnc(NC3CCOCC3)nc21 | > 25 | > 25 | > 25 | > 25 | > 25 | > 25 | > 25 | > 25 | > 25 | > 25 | > 25 | > 25 | 2.64 | > 25 | > 25 | > 25 | > 25 | > 25 | > 25 | > 25
CC(O)(CNS(=O)(=O)c1ccccc1)c1ccccc1 (stereo not given) |  | > 100 |  | > 100 |  | > 100 |  | > 100 |  | > 100 |  | > 100 |  | > 100 |  | > 100 |  | > 100 |  | > 100
O=S(=O)(O)c1cc(N=Nc2cc(S(=O)(=O)O)c3cccnc3c2O)ccc1/C=C/c1ccc(N=Nc2cc(S(=O)(=O)O)c3cccnc3c2O)cc1S(=O)(=O)O |  | > 100 |  | > 100 |  | > 100 |  | 56.5 |  | > 100 |  | > 100 |  | > 100 |  | > 100 |  | > 100 |  | > 100
COc1ccc(-c2nnc(N3CCN(C(=O)CN4CCN(c5ccc(Cl)cc5)CC4)CC3)nc2-c2ccc(OC)cc2)cc1 | 17.5 | 69.8 | 35.5 | > 100 | 26.2 | 81.1 | 10.7 | 52.3 | 45.9 | > 100 | 58.5 | > 100 | 16.2 | 39.1 | 20.7 | > 100 | 49.4 | > 100 | 19.5 | 65.3
CN(C)CC1(Cc2ccccc2)CCC(Cc2ccccc2)C1=O (stereo not given) |  | 4.37 |  | 27.3 |  | 33 |  | 12.5 |  | 24.3 |  | 26.7 |  | 40 |  | 40 |  | 31.2 |  | 30
C=C1CC2(CCCC3(CC(=C)C(=O)O3)C2(C)C)OC1=O (stereo not given) |  | 11.4 |  | 27.7 |  | 30.8 |  | 5.65 |  | 17.7 |  | 6.31 |  | 19.3 |  | 27.9 |  | 33.8 |  | 34.4
O=S(=O)(NCCNc1cc(-c2cn(-c3ccccc3)nc2-c2cccc(O)c2)ccn1)c1ccc(Cl)cc1 | 2.54 | 9.78 | 2.4 | 5.71 | 2.87 | 13.7 | 2.42 | 5.98 | 2.14 | 5.56 | 4.25 | 23.1 | 2.34 | 8.35 | 2.84 | 13.4 |  |  | 3.28 | 20.4
CC(C)(C)OC(=O)CN1CCc2c(sc3ncnc(N/N=C/c4cccc5ccccc45)c23)C1 | 4.11 | 16.4 | 5 | 12.3 | 2.31 | 11.4 | 2.55 | 19.2 | 2.64 | 9.21 | 5.34 | > 33.3 | 1.74 | 16.7 | 3.55 | 14.5 | 4.41 | 10.2 | 1.04 | 14.4
C/C1=C/C(=O)O[C@@H]2C[C@@H](CC[C@H](C)/C=C\C=C\CC1)O[C@@](OCCc1ccccc1)([C@@H]1CSC(=O)N1)C2 | 0.107 | > 17.5 | 0.917 | > 13.8 | 0.0777 | > 17.5 | 1.31 | > 17.5 | 0.0949 | > 17.5 | 0.0895 | 0.287 | 0.0119 | 0.0661 | 2.95 | > 17.5 | 0.0383 | > 4.55 | 0.022 | 0.0597
O=[N+]([O-])c1ccc(/C=C(/c2ccc([N+](=O)[O-])o2)S(=O)(=O)c2ccccc2)o1 |  | 14.7 |  | 35.8 |  | 38.3 |  | 8.67 |  | 16.3 |  | 15.2 |  | 27.8 |  | 39.1 |  | 34.2 |  | 33.7
COc1cc2cc(Oc3ccc(NC(=O)Nc4ccc(Cl)c(C(F)(F)F)c4)cc3)c(C)nc2cc1OC | 1.17 | 4.96 | 0.799 | 1.94 | 1.3 | 5.32 | 1.13 | 3.12 | 0.681 | 1.84 | 1.32 | 6.19 | 0.682 | 2.05 | 1.06 | 4.91 | 0.899 | 2.91 | 1.03 | 4.9
CN1CCN(CCNc2ccc(CO)c3sc4ccccc4c(=O)c23)CC1 |  | 17.5 |  | 20.9 |  | 18.6 |  | 15.7 | 3.99 | 15.2 |  | 20.1 |  | 13.2 | 2.56 | 14.3 |  | 17.5 |  | 14.5
COc1ccc2c(c1)cn1c3ccc(O)cc3[nH]c(=O)c21 | 0.334 | 5.49 | 0.215 | 2.08 | 0.258 | 17.9 | 0.216 | 1.2 | 0.469 | 2.47 | 0.881 | 2.49 | 2.53 | 18.2 | 0.187 | 11.8 | 0.248 | 3.52 | 0.227 | 13.6
COc1cc(NCc2ccccc2O)c2ncccc2c1 | 29.8 | > 100 | 18.1 | 50.3 | 19.7 | > 100 | 18.5 | 57 | 14.3 | > 100 | 26.5 | > 100 | 3.83 | 30.3 | 23.2 | 85.3 | 20.6 | 67.4 | 8.52 | 59.3
